Measured values published in publication PMC4205912, “Sea foam as a source of fungal inoculum for the isolation of biologically active natural products” (Mycology, 2014).
≈ marks a conversion by molar mass, not a printed value. Read-outs that look alike come from different tables or passages of the source.

Tests used:
[1] = system: human breast adenocarcinoma cells (ATCC HTB-26); experiment: cytotoxicity assay (Alamar blue), HTB-26; assay type: cell-based; settings: for IC50: Homo sapiens, HTB26, 72 h, read-out: HTB-26 IC50
Experimental: (§1) Human foreskin BJ fibroblast cells (ATCC CRL-2522), adult human epidermal keratinocytes (HEKa), and human breast adenocarcinoma cells (ATCC HTB-26) were grown to 80% confluency (growth conditions are provided in Supplementary Materials and Methods), the cells were counted, diluted, and plated into treated 96-well cell culture plates. The BJ fibroblast and HEKa cells were plated at a cell density of 10,000 cells per well and the HTB-26 cells were plated at cell density of 5000 cells per well in 90 µL of respective growth medium (without the addition of antibiotics) and incubated for 24 h to allow cells to adhere to the plates before treatment. Pure compounds were tested in triplicate in serial dilutions of eight concentrations ranging from 128 µg/mL to 1 µg/mL per well (final well volume of 100 µL, 1% DMSO per well). Each of the cell lines were incubated at 37°C in a humidified atmosphere of 5% CO2; the BJ fibroblast and HEKa cells for 24 h and the HTB-26 cells for 72 h. Each plate contained four uninoculated positive controls, four untreated negative controls, and one column containing a concentration range of zinc pyrithione or doxorubicin. Alamar blue was added, 24 h after the treatment, and fluorescence was monitored using a Thermo Scientific Varioskan Flash plate reader at 560/12 excitation, 590 nm emission both at time zero and 4 h after Alamar blue addition. The inferred percentage of cell viability relative to vehicle control wells were calculated after subtracting the time zero emission 590 nm measurement from the final reading and the IC50 was determined.

VRE EF379 = experiment: microbroth antibiotic susceptibility testing, VRE; assay type: cell-based, vancomycin-resistant Enterococcus faecium; settings: Enterococcus, VRE; for IC50: read-out: VRE IC50; for MIC: read-out: VRE MIC
Experimental: (§2) All microbroth antibiotic susceptibility testing was carried out in triplicate in 96-well plates in accordance with Clinical Laboratory Standards Institute testing standards (NCCLS, [2003]) using the following pathogens: MRSA ATCC 33591 (MRSA), S. warneri ATCC 17917, VRE EF379 (VRE), Pseudomonas aeruginosa ATCC 14210, Proteus vulgaris ATCC 12454, and Candida albicans ATCC 14035. Extract fractions were assayed at 250 µg/mL while pure compounds were serially diluted to generate a range of 12 concentrations (128–0.0625 µg/mL) in a final well volume concentration of 2% DMSO(aq). […] The optical density of the plate was recorded using a Thermo Scientific Varioskan Flash plate reader at 600 nm at time zero and then again after incubation of the plates for 22 h at 37°C. After subtracting the time zero OD600 from the final reading, the percentages of microorganism survival relative to vehicle control wells were calculated.

[2] = system: Candida albicans ATCC 14035; experiment: microbroth susceptibility testing, C. albicans; assay type: cell-based; settings: for IC50 / MIC: Candida albicans, ATCC14035
Experimental: as §2

[3] = system: adult human epidermal keratinocytes (HEKa); experiment: cytotoxicity assay (Alamar blue), keratinocytes; assay type: cell-based; settings: Homo sapiens; HeKa cells, 24 h; read-out: Keratinocyte IC50
Experimental: as §1

[4] = system: Pseudomonas aeruginosa ATCC 14210; experiment: microbroth antibiotic susceptibility testing, P. aeruginosa; assay type: cell-based; settings: Pseudomonas aeruginosa, ATCC14210; triplicate, averaged; 22 h at 37°C
Experimental: as §2

MRSA ATCC 33591 = experiment: microbroth antibiotic susceptibility testing, MRSA; assay type: cell-based, methicillin-resistant Staphylococcus aureus; settings: Staphylococcus aureus; for IC50: read-out: MRSA IC50; for MIC: read-out: MRSA MIC
Experimental: as §2

[5] = system: Human foreskin BJ fibroblast cells (ATCC CRL-2522); experiment: cytotoxicity assay (Alamar blue), fibroblasts; assay type: cell-based; settings: for IC50: Homo sapiens, 24 h, read-out: Fibroblast IC50
Experimental: as §1

S. warneri ATCC 17917 = experiment: microbroth antibiotic susceptibility testing, S. warneri; assay type: cell-based; settings: Staphylococcus warneri; for IC50: read-out: S. warneri IC50; for MIC: read-out: S. warneri MIC
Experimental: as §2

[6] = system: Proteus vulgaris ATCC 12454; experiment: microbroth antibiotic susceptibility testing, P. vulgaris; assay type: cell-based; settings: Proteus vulgaris, ATCC12454; triplicate, averaged; 22 h at 37°C
Experimental: as §2, with “14035.” for “14035. Extract fractions were assayed at 250 µg/mL while pure compounds were serially diluted to generate a range of 12 concentrations (128–0.0625 µg/mL) in a final well volume concentration of 2% DMSO(aq).”

[7] = system: erythropoietin gene expression; set-up: method as in Cai et al. [1998]; settings: at a concentration of 1–1.6 µM; ref Cai et al. [1998]; cited from earlier work
[8] = HTB-26 breast cancer cells, 72 h
[9] = at a concentration of 128 μg/mL
[10] = triplicate, averaged, 22 h at 37°C
[11] = ATCC17917, triplicate, averaged, 22 h at 37°C

IC50 (VRE EF379; [10])	MIC (VRE EF379; [10])	IC50 [2, 10]	MIC [2, 10]	IC50 [4]	MIC [4]	IC50 (MRSA ATCC 33591; [10])	MIC (MRSA ATCC 33591; [10])	IC50 (S. warneri ATCC 17917; [11])	MIC (S. warneri ATCC 17917; [11])	IC50 [6]	MIC [6]	Compound	HTB-26 MIC [1, 8]	IC50 [1, 8]	IC50 [3]	IC50 ([5]; BJ cells)	other results
> 128 µg/mL	> 128 µg/mL	> 128 µg/mL	> 128 µg/mL	> 128 µg/mL	> 128 µg/mL	> 128 µg/mL	> 128 µg/mL	> 128 µg/mL	> 128 µg/mL	> 128 µg/mL	> 128 µg/mL	Cc1cc(O)c2c(c1)C(=O)c1cccc(O)c1C2=O [Chrysophanol, chrysophanol]	>64 µg/mL	> 64 µg/mL	> 64 µg/mL	> 64 µg/mL	activity against HTB-26 cell line [1, 9]: inactive; activity against fibroblast cell line [5, 9]: inactive
128 µg/mL (≈ 268 µM)	> 128 µg/mL	> 128 µg/mL	> 128 µg/mL	> 128 µg/mL	> 128 µg/mL	> 128 µg/mL	> 128 µg/mL	> 128 µg/mL	> 128 µg/mL	> 128 µg/mL	> 128 µg/mL	Cc1cc(O)c2c(c1)C(C1c3cccc(O)c3C(=O)c3c(O)cc(C)cc31)c1cccc(O)c1C2=O (centres unmarked) [Chrysophanol bianthrone, chrysophanol bianthrone]	64 µg/mL	5 µg/mL (≈ 10.4 µM)	> 64 µg/mL	> 64 µg/mL	–
–	–	–	–	–	–	–	–	–	–	–	–	COc1cccc2c1C(=O)c1c(O)c3c(c(O)c1C2=O)C[C@@](O)(C(=O)CO)C[C@@H]3O[C@H]1C[C@H](N)[C@H](O)[C@H](C)O1 [Doxorubromycin, doxorubicin, reference compound]	>16 µg/mL	2.5 µg/mL (≈ 4.6 µM)	–	–	–
52 µg/mL (≈ 135 µM)	> 64 µg/mL	43 µg/mL (≈ 112 µM)	64 µg/mL (≈ 166 µM)	> 128 µg/mL	> 128 µg/mL	48 µg/mL (≈ 125 µM)	64 µg/mL (≈ 166 µM)	–	–	> 64 µg/mL	> 64 µg/mL	C/C1=C\C(C)(C)/C=C/C[C@@]2(C)Oc3cc(O)c(=O)cc(C)c3CC2C[C@@H](O)C1 (some centres unmarked) [Epolone B, epolone B]	–	–	50 µg/mL (≈ 130 µM)	> 128 µg/mL	induction of erythropoietin gene expression [7]: five-fold; effect against C. albicans [2]: inhibitory effect
> 128 µg/mL	> 128 µg/mL	> 128 µg/mL	> 128 µg/mL	> 128 µg/mL	> 128 µg/mL	> 128 µg/mL	> 128 µg/mL	> 128 µg/mL	> 128 µg/mL	> 128 µg/mL	> 128 µg/mL	Cc1cc(CO)c2c(=O)c3c(O)cccc3oc2c1 [1-hydroxy-6-methyl-8-hydroxymethylxanthone]	32 µg/mL	24 µg/mL (≈ 93.7 µM)	12 µg/mL (≈ 46.8 µM)	29 µg/mL (≈ 113 µM)	–
100 µg/mL (≈ 284 µM)	> 128 µg/mL	> 128 µg/mL	> 128 µg/mL	> 128 µg/mL	> 128 µg/mL	14 µg/mL (≈ 39.7 µM)	64 µg/mL (≈ 181 µM)	23 µg/mL (≈ 65.2 µM)	64 µg/mL (≈ 181 µM)	> 128 µg/mL	> 128 µg/mL	COC1=C(Cl)C(C)(O)c2c(oc(=O)c3c(O)cc(OC)cc23)C1=O (centres unmarked) [TMC-264]	8 µg/mL	2.8 µg/mL (≈ 7.94 µM)	1 µg/mL (≈ 2.84 µM)	13 µg/mL (≈ 36.9 µM)	–
–	–	–	–	–	–	–	–	–	–	–	–	C[C@@H]1[C@H](O)[C@@H](C)/C=C/C=C/CC/C=C/C=C/C=C/C=C/C(O[C@H]2O[C@H](C)[C@@H](O)[C@H](N)[C@@H]2O)CC2O[C@](O)(CC(O)C(O)CCC(O)CC(O)CC(O)CC(=O)O[C@H]1C)CC(O)C2C(=O)O (some centres unmarked) [Nystatin, nystatin, reference compound]	–	–	–	–	C. albicans IC50 [2, 10]: 0.92 µg/mL; C. albicans MIC [2, 10]: 1.6 µg/mL
0.5 µg/mL (≈ 0.608 µM)	2 µg/mL (≈ 2.43 µM)	–	–	–	–	–	–	–	–	–	–	CO[C@H]1/C=C/O[C@@]2(C)Oc3c(C)c(O)c4c(O)c(c(/C=N/N5CCN(C)CC5)c(O)c4c3C2=O)NC(=O)/C(C)=C\C=C\[C@H](C)[C@H](O)[C@@H](C)[C@@H](O)[C@@H](C)[C@H](OC(C)=O)[C@@H]1C [Rifampicin, rifampicin, reference compound]	–	–	–	–	–
44 µg/mL (≈ 84.5 µM)	> 64 µg/mL	> 64 µg/mL	> 64 µg/mL	> 128 µg/mL	> 128 µg/mL	48 µg/mL (≈ 92.2 µM)	64 µg/mL (≈ 123 µM)	33 µg/mL (≈ 63.4 µM)	64 µg/mL (≈ 123 µM)	> 64 µg/mL	> 64 µg/mL	Cc1cc(=O)c(O)cc2c1C[C@H]1CC(C)(C)/C=C/C[C@@]3(C)Oc4cc(O)cc(C)c4C[C@@H]3C[C@H](O)[C@]1(C)O2 [Epolone A, epolone A]	–	–	13 µg/mL (≈ 25 µM)	14 µg/mL (≈ 26.9 µM)	induction of erythropoietin gene expression [7]: five-fold
–	–	–	–	–	–	–	–	–	–	–	–	CN[C@H](CC(C)C)C(=O)N[C@H]1C(=O)N[C@@H](CC(N)=O)C(=O)N[C@H]2C(=O)N[C@H]3C(=O)N[C@H](C(=O)N[C@H](C(=O)O)c4cc(O)cc(O)c4-c4cc3ccc4O)[C@H](O)c3ccc(c(Cl)c3)Oc3cc2cc(c3O[C@@H]2O[C@H](CO)[C@@H](O)[C@H](O)[C@H]2O[C@H]2C[C@](C)(N)[C@H](O)[C@H](C)O2)Oc2ccc(cc2Cl)[C@H]1O [Vancomycin, vancomycin, reference compound]	–	–	–	–	IC50 (MRSA ATCC 33591; 22 h): 0.88 µg/mL (≈ 0.607 µM); MIC (MRSA ATCC 33591; 22 h): 1.6 µg/mL (≈ 1.1 µM); IC50 (S. warneri ATCC 17917; ATCC17917, 22 h): 0.75 µg/mL (≈ 0.518 µM); MIC (S. warneri ATCC 17917; ATCC17917, 22 h): 1 µg/mL (≈ 0.69 µM)

Compound	IC50 (VRE EF379; [10])	MIC (VRE EF379; [10])	IC50 [2, 10]	MIC [2, 10]	IC50 [4]	MIC [4]	IC50 (MRSA ATCC 33591; [10])	MIC (MRSA ATCC 33591; [10])	IC50 (S. warneri ATCC 17917; [11])	MIC (S. warneri ATCC 17917; [11])	IC50 [6]	MIC [6]	HTB-26 MIC [1, 8]	IC50 [1, 8]	IC50 [3]	IC50 ([5]; BJ cells)	other results
C[C@H]1CCC/C=C/[C@@H]2C[C@H](O)C[C@H]2[C@H](O)/C=C/C(=O)O1 [Brefeldin A, brefeldin A]	> 128 µg/mL	> 128 µg/mL	20 µg/mL (≈ 71.3 µM)	128 µg/mL (≈ 457 µM)	> 128 µg/mL	> 128 µg/mL	> 128 µg/mL	> 128 µg/mL	> 128 µg/mL	> 128 µg/mL	> 128 µg/mL	> 128 µg/mL	–	> 0.5 µg/mL	0.5 µg/mL (≈ 1.78 µM)	> 64 µg/mL	effect against C. albicans [2]: antifungal effect
CC(C)C12SSSSC3(C(=O)N1C)C1OC45C(=O)N(C)C(CO)C(=O)N4C4Nc6ccccc6C4(C5O)C14c1ccccc1NC4N3C2=O (centres unmarked) [Leptosin J, leptosin J]	–	–	> 128 µg/mL	> 128 µg/mL	> 128 µg/mL	> 128 µg/mL	–	–	9 µg/mL (≈ 12.1 µM)	64 µg/mL (≈ 86.4 µM)	> 128 µg/mL	> 128 µg/mL	0.5 µg/mL	–	> 0.5 µg/mL	–	IC50 [1]: > 0.5 µg/mL; IC50 (VRE EF379; 22 h): 128 µg/mL (≈ 173 µM); MIC (VRE EF379; 22 h): > 128 µg/mL; IC50 (MRSA ATCC 33591; 22 h): 0.7 µg/mL (≈ 0.945 µM); MIC (MRSA ATCC 33591; 22 h): 2 µg/mL (≈ 2.7 µM); IC50 ([5]; BJ): 0.5 µg/mL (≈ 0.675 µM)
